Values joined by “and” are separate entries in the source; they are usually repeats but may differ in a detail not shown here. Identical values can stand only once. Marks after values point to notes of the source that are not given here.
Experiments:
Assay type in all cases: biochemical
[1] = AK activity after transient pH drop or acidic incubation at pH 4; details: for AK activity relative to control: listed as AK alone
Method: (§1) Experimental work used adenylate kinase-generated ATP to drive a luciferin/luciferase activity, giving results in RLUs as a quantitative measure of initial ATP levels. All AK assays were performed at pH 7.5, and 37° C. Results of the assay were read at ambient temperature.
In further experiments, three treatment conditions were tested: (i) a control, run at pH 7.5 with no pH change; (ii) a transient pH drop before the assay, where pH was reduced to pH 4 and then returned to pH 7.5; and (iii) an acidic incubation, where pH was reduced to pH 4 for 15 minutes. AK activity was then assessed. In parallel tests, the effect of these pH conditions on the viability of E. coli and E. faecalis was assessed.

[2] = Effect of incubation pH on purified AK activity (luciferin/luciferase)
Method: as §1
To assess the effect of pH on AK activity, purified enzyme was incubated for 1 hour at various pH, with pH 7.5 being the control (normal assay conditions). AK activity was measured by using the bioluminescent luciferin/luciferase to detect AK-generated ATP.

[3] = test system: bacterial adenylate kinase; experiment: AK reduction by different proteases over time for different organisms; details: 37° C., 10 to 120 minutes; trypsin 1000, papain 10, proteinase K 2.5, chymotrypsin 1 U/ml
Method: • 1. Bacteria were scraped from plates and inoculated in approximately 20 ml of broth only. These were incubated overnight at 37° C. • 2. 10× stocks of the enzymes were prepared in broth only: • a. 10 mg of 16,000 U/mg Trypsin added to 16 ml of broth to give 10,000 U/ml (10×) stock. • b. 25 mg of 4 U/mg Papain added to 1 ml of broth to give 100 U/ml (10×) stock. • c. 10 mg of 7.5 U/mg proteinase K added to 3 ml of broth to give a 25 U/ml (10×) stock. • d. 10.5 ul of 239 U/ml chymotrypsin added to 239.5 ul of broth to give a 10 U/ml stock. • 3. The inoculums were then centrifuged at approximately 14030 RCF for one hour. • 4. The supernatant was then taken, tested for adenylate kinase activity (described below), and diluted with broth only if needed to give about 10^5 cpm/ml. • 5. The supernatant was then assayed for adenylate kinase activity at time point zero in triplicate and averaged. • 6. 1.5 ml solutions of the supernatants were prepared with the correct concentration of enzyme, or broth for control. These were incubated at 37° C. • 7. Samples were then taken and assayed in triplicate for adenylate kinase activity at 10, 30, 60 and 120 minutes. • 8. The triplicates were averaged, and normalised by dividing by the time point zero average. Adenylate Kinase Assay (AK Only No Cells) • 1. […] added to a cuvette. • 2. […] RLU read immediately. […]

adenylate kinase [AK]
AK activity relative to control ([1]; acidic incubation: pH 4 for 15 minutes): 13% and 8% | reduction in AK activity ([1]; incubation at pH 4): ~10 fold | AK activity relative to control ([1]; transient pH drop: reduced to pH 4 and returned to pH 7.5): 91% and 89% | AK activity, RLU ([2]; incubated 1 hour at pH 3): 15.7 RLU (10^3) | AK activity, RLU ([2]; incubated 1 hour at pH 4): 11.1 RLU (10^3) | AK activity, RLU ([2]; incubated 1 hour at pH 5): 299.0 RLU (10^3) | AK activity, RLU ([2]; incubated 1 hour at pH 6): 333.5 RLU (10^3) | AK activity, RLU ([2]; incubated 1 hour at pH 7.5 (control, normal assay conditions)): 288.2 RLU (10^3) | AK activity, RLU ([2]; incubated 1 hour at pH 9): 262.4 RLU (10^3) | AK activity, RLU ([2]; incubated 1 hour at pH 10): 214.5 RLU (10^3) | AK activity, RLU ([2]; incubated 1 hour at pH 11): 201.2 RLU (10^3) | AK activity, RLU ([2]; incubated 1 hour at pH 12): 88.6 RLU (10^3)

chymotrypsin
degradation of AK extracted from different organisms [3]: degraded the AK in a similar manner to trypsin

Reference: patent US8349583B2, “Distinguishing cells in a sample by inactivating extracellular enzyme before releasing intracellular enzyme” (priority 2005, dated 2013)
